Assay results reported in patent publication US10770699B2, “Stable bromine charge storage in porous carbon electrodes using tetraalkylammonium bromides for reversible solid complexation” (The Regents of the University of California, priority 2014, dated 2020).

Test: Solubility of redox-active electrolyte species in aqueous electrolyte

Structure (SMILES): CCCCCC[n+]1ccc(-c2cc[n+](CCCCCC)cc2)cc1 [Hexyl viologen]
- solubility in the presence of NaBr (aqueous, in the presence of NaBr): < 500 mM

Structure (SMILES): CCCCCCC[n+]1ccc(-c2cc[n+](CCCCCCC)cc2)cc1.[Br-].[Br-] [HV]
- solubility (aqueous electrolyte): < 200 mM
